What was measured:
SOD [1] = test: SOD activity of Arabidopsis thaliana root extract (SOD Assay Kit-WST); assay type: in vivo; conditions: root extract of Arabidopsis thaliana grown with sugar alcohol 0-2% (Example 1)
From the text: RNA was extracted from a root of the Arabidopsis thaliana grown by a culture medium which contains a MS culture medium composition having sucrose at a concentration of 2% and a series of test substances at a final concentration of 0-2% each. This extracted specimen was supplied to the DNA microarray. In addition, RNA was extracted from the hepatocytes of SD rat grown with feed which contains a control feed having cornstarch as the main ingredient and a sugar alcohol as a series of test substances at a final concentration of 0-10%. This extracted specimen was supplied to the DNA microarray in the same way as described above. The protein of the ROS-scavenging enzyme in the model organism cells was separated and purified using AKT Aexplorer (FPLC). SOD activity measurements were carried out according to a standard protocol using SOD Assay Kit-WST. The roots of the Arabidopsis thaliana grown in Example 1 were crushed and water-extracted and then freeze-dried. Then each of the dried extract was dissolved in the buffer solution of 0.1M calcium phosphate to obtain a specimen. The SOD activity was determined according to a standard protocol using SOD Assay Kit-WST (Dojin Kagaku Kenkyu-Sho). […] In particular, the SOD activity of the erythritol-added group increased by 2-5 times.

[2] = test system: Cu/Zn-type SODs and SOD Cu Chaperone genes; test: Transcriptomics with Arabidopsis thaliana DNA chip on root total RNA; assay type: in vivo; conditions: root of Arabidopsis thaliana grown on 2% sugar-containing MS medium with sugar alcohol at final concentration 0-2%
From the text: (§1) The DNA microarray is a partial sequence of DNA arranged and fixed in a high-density manner on a slide glass which is divided into from several tens of thousands to hundreds of thousands. By using this, an expressed gene can be detected. Arabidopsis thaliana and a rat were used as model organisms. These organisms each was cultivated or bred with an arbitrary test substance and then an mRNA extracted from the cells of the cultivated or bred organism was hybridized with a target which is changed into cDNA with a reverse transcriptase. By carrying out this procedure, gene information expressed in the model organism was detected comprehensively, this procedure is so-called a transcriptomics. Furthermore, separation and purification of the protein of the ROS-scavenging enzyme in the model organisms' cells and determination of the enzyme activity were carried out, whereby the results obtained from the transcriptomics were directly verified. RNA was extracted from a root of the Arabidopsis thaliana grown by a culture medium which contains a MS culture medium composition having sucrose at a concentration of 2% and a series of test substances at a final concentration of 0-2% each. This extracted specimen was supplied to the DNA microarray. In addition, RNA was extracted from the hepatocytes of SD rat grown with feed which contains a control feed having cornstarch as the main ingredient and a sugar alcohol as a series of test substances at a final concentration of 0-10%. This extracted specimen was supplied to the DNA microarray in the same way as described above. The protein of the ROS-scavenging enzyme in the model organism cells was separated and purified using AKT Aexplorer (FPLC). SOD activity measurements were carried out according to a standard protocol using SOD Assay Kit-WST. Total RNA was extracted from the root of Arabidopsis thaliana grown by a culture medium containing a 2% sugar-containing MS culture medium composition and a series of sugar alcohols at a final concentration of 0-2% each. Transcriptomics was conducted using a Arabidopsis thaliana DNA chip (the number of loading genes: 30,480 genes, the number of probe/gene: 6, probe length: 60mer) of GeneFrontier Corporation.

SOD [3] = test: SOD activity of rat liver extract (SOD Assay Kit-WST); assay type: in vivo, SD rat; conditions: liver extract of rats fed thirty days with sugar alcohol 0-10% in feed (Example 2)
From the text: RNA was extracted from a root of the Arabidopsis thaliana grown by a culture medium which contains a MS culture medium composition having sucrose at a concentration of 2% and a series of test substances at a final concentration of 0-2% each. This extracted specimen was supplied to the DNA microarray. In addition, RNA was extracted from the hepatocytes of SD rat grown with feed which contains a control feed having cornstarch as the main ingredient and a sugar alcohol as a series of test substances at a final concentration of 0-10%. This extracted specimen was supplied to the DNA microarray in the same way as described above. The protein of the ROS-scavenging enzyme in the model organism cells was separated and purified using AKT Aexplorer (FPLC). SOD activity measurements were carried out according to a standard protocol using SOD Assay Kit-WST. The livers of the rats fed in Example 2 each was crushed and then extracted with normal saline solution, and then freeze-dried. SOD activity was determined according to the same way as described in Example 3. […] In particular, the SOD activity of the erythritol-added group increased by 2 times.

[4] = test system: Cu/Zn-type SODs and SOD Cu Chaperone genes; test: Transcriptomics with rat DNA chip on hepatocyte total RNA of fed rats; assay type: in vivo; conditions: hepatocytes of SD rats fed thirty days with feed containing sugar alcohol at final concentration 0-10%
From the text: as §1, with “Kit-WST. Rats were fed for thirty days with a control diet containing 552.5 parts by weight of cornstarch, 250 parts by weight of casein, 35 parts by weight of mineral, 10 parts by weight of vitamin mixture, 2.5 parts by weight of choline bitartrate, 50 parts by weight of corn oil and 100 parts by weight of powdered cellulose, or feedstuffs containing the same composition as described in the control diet except that a portion of the powdered cellulose was replaced with the series of sugar alcohols so that the feedstuffs contain sugar alcohols at the final concentration of 0-10% each. The livers were taken out of the killed SD system rats and the total” for “Kit-WST. Total”, “the hepatocytes,” for “the root of Arabidopsis thaliana grown by a culture medium containing a 2% sugar-containing MS culture medium composition”, “and transcriptomics” for “and a series of sugar alcohols at a final concentration of 0-2% each. Transcriptomics”, “a rat” for “a Arabidopsis thaliana”, “genes: 21,205,” for “genes: 30,480 genes,”, “of probes per gene: 9,” for “of probe/gene: 6,”

Row | SMILES | SOD activity compared to the control group (SOD [1]) | increase of SOD activity compared to the control group (SOD [1]) | expression of Cu/Zn-type SODs and SOD Cu Chaperone genes [2] | SOD activity compared to the control group (SOD [3]) | increase of SOD activity compared to the control group (SOD [3]) | expression of Cu/Zn-type SODs and SOD Cu Chaperone genes [4]
1 | OC[C@@H](O)[C@@H](O)CO [erythritol] | promotion of the SOD activity was seen | 2-5 times | up-regulated | promotion of the SOD activity was seen | 2 times | up-regulated
2 | OC[C@@H](O)[C@@H](O)[C@H](O)[C@H](O)CO [mannitol] | promotion of the SOD activity was seen | – | up-regulated | promotion of the SOD activity was seen | – | up-regulated
3 | OC[C@@H](O)[C@@H](O)[C@H](O)[C@@H](O)CO [sorbitol] | promotion of the SOD activity was seen | – | up-regulated | promotion of the SOD activity was seen | – | up-regulated
4 | OC[C@@H](O)[C@H](O)[C@@H](O)CO [xylitol] | promotion of the SOD activity was seen | – | up-regulated | promotion of the SOD activity was seen | – | up-regulated

Reference: patent publication US20100037353A1, “METHOD FOR IMPROVING ACTIVITY OF REACTIVE OXYGEN SPECIES SCAVENGING ENZYMES” (B Food Science Co., Ltd., priority 2007, published 2010)
